Drawing on PubChem BioAssay (NCI), this text covers TGI for 13 compounds.

Among the test systems are HL-60(TB) leukemia; M14 melanoma; MDA-MB-231 breast; MDA-MB-435; MDA-N; MOLT-4 leukemia; OVCAR-5 ovarian; PC-3 prostate; SK-MEL-2 melanoma; UO-31 renal.
What all share (test): inhibition of tumour cell growth, NCI panel, 48 h

Molecules are shown by their SMILES.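 Results reflect a 48-hour exposure of cells in 96-well plates to compound at five concentrations. At the TGI there is no net growth.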 Where a SMILES comes first, the peptide text is derived from it. The star is where a group is joined. Fmoc = O=C(OCC1c2ccccc2-c2ccccc21)*; Boc = CC(C)(C)OC(=O)* Bounds are passed on as bounds.

Take `CC(C)(C)c1cc2c(O)c(c1)Cc1cc(C(C)(C)C)cc(c1O)Cc1cc(C(C)(C)C)cc(c1O)Cc1cc(C(C)(C)C)cc(c1O)Cc1cc(C(C)(C)C)cc(c1O)Cc1cc(C(C)(C)C)cc(c1O)Cc1cc(C(C)(C)C)cc(c1O)Cc1cc(C(C)(C)C)cc(c1O)C2`: the TGI in the test on HL-60(TB) leukemia, with M14 melanoma, in the test on MDA-MB-231 breast, in the test with MDA-MB-435, in the test with MDA-N and in the test with MOLT-4 leukemia was over 50 µM each time. For the same compound, the TGI in the test with OVCAR-5 ovarian, in the test on PC-3 prostate, in the test on SK-MEL-2 melanoma and in the test on UO-31 renal was over 50 µM throughout.
Turning to `O=C(NCCNCCCNC(=O)c1cc(-c2ccccc2)nc2ccccc12)c1cccc(OCc2ccccc2)c1OCc1ccccc1`, the TGI with HL-60(TB) leukemia is 3.19 µM; in the test with M14 melanoma, 3.1 µM; in the test with MDA-MB-231 breast, 3.21 µM; in the test with MDA-MB-435 it was 3.04 µM; in the test with MDA-N, 3.05 µM; in the test on MOLT-4 leukemia, 3.51 µM. For the same compound, the TGI in the test on OVCAR-5 ovarian is 3.37 µM; in the test on PC-3 prostate, 3.04 µM; in the test with UO-31 renal, 3.03 µM.
In the case of `CC1=CC(=O)CC(C)(C)C1/C=C/C(C)=C/C=C/C(C)=C/C=C/C=C(C)/C=C/C=C(C)/C=C/C1=C(C)CC(O)CC1(C)C` (configuration not stated), the TGI was over 100 µM in the test on HL-60(TB) leukemia; over 100 µM in the test on M14 melanoma; over 100 µM with MDA-MB-231 breast; 84.8 µM with MDA-MB-435; over 100 µM in the test with MDA-N; 1.6 µM in the test on MOLT-4 leukemia. In addition, the TGI in the test with OVCAR-5 ovarian, with PC-3 prostate, in the test with SK-MEL-2 melanoma and with UO-31 renal was over 100 µM in each case.
As to `COc1ccc(/C=C2\CCC/C(=C\c3ccc(O)c(CN4CCCCC4)c3)C2=O)cc1`, the TGI in the test on HL-60(TB) leukemia was over 100 µM; with M14 melanoma, 35.3 µM; with MDA-MB-231 breast, 35.2 µM; in the test with MDA-MB-435 it was 39.6 µM; in the test on MDA-N, 37.2 µM; with MOLT-4 leukemia, 40.7 µM. Moreover, the TGI with OVCAR-5 ovarian was 61.3 µM; in the test with PC-3 prostate, 42.7 µM; with SK-MEL-2 melanoma it was 43 µM; in the test with UO-31 renal it was 39.9 µM.
For `O=C(c1ccc(Cl)cc1)N(C(=S)OCc1ccccn1)c1ccccc1`, the TGI with HL-60(TB) leukemia, with M14 melanoma, with MDA-MB-231 breast, in the test on MDA-MB-435, in the test with MDA-N and in the test on MOLT-4 leukemia was over 100 µM throughout. Also, the TGI in the test on OVCAR-5 ovarian, in the test on PC-3 prostate, in the test on SK-MEL-2 melanoma and in the test with UO-31 renal was over 100 µM in each case.
Consider `COc1ccc2cc(-c3nc(N)nc(N4N=C(C)CC4(C)C)n3)c(=N)oc2c1`, for which the TGI was found to be 43.9 µM with HL-60(TB) leukemia; 38.1 µM in the test with M14 melanoma; 44.8 µM in the test with MDA-MB-231 breast; 42.1 µM with MDA-MB-435; 33.5 µM with MDA-N; 33.7 µM in the test on MOLT-4 leukemia. Further, the TGI in the test with OVCAR-5 ovarian was determined as 41.3 µM; with PC-3 prostate it was 39.2 µM; with SK-MEL-2 melanoma it was 35.7 µM; in the test on UO-31 renal, 55.1 µM.
Turning to `COc1cc(-c2[o+]c3cc(O)cc(O)c3cc2O)cc(O)c1O`, the TGI in the test on HL-60(TB) leukemia is over 100 µM; in the test on M14 melanoma it was over 100 µM; in the test on MDA-MB-231 breast, over 100 µM; in the test on MDA-MB-435, 38.3 µM; with MDA-N, over 100 µM; with MOLT-4 leukemia, over 100 µM. In addition, the TGI with OVCAR-5 ovarian, in the test on PC-3 prostate, in the test on SK-MEL-2 melanoma and in the test with UO-31 renal was over 100 µM in each case.
Regarding `CCOC1Oc2ccccc2-c2nc(SC)ncc21` (configuration not stated), the TGI in the test on HL-60(TB) leukemia, in the test on M14 melanoma, in the test with MDA-MB-231 breast, in the test with MDA-MB-435, in the test with MDA-N and with MOLT-4 leukemia was over 100 µM throughout. Further, the TGI in the test with OVCAR-5 ovarian, with PC-3 prostate, in the test with SK-MEL-2 melanoma and with UO-31 renal was over 100 µM each time.
`CCN(CC)Cc1c(/C=C\c2cc(OC)c(OC)c(OC)c2)ccc(OC)c1O`: the TGI is over 60.8 µM with HL-60(TB) leukemia; over 59.1 µM in the test with M14 melanoma; over 100 µM in the test with MDA-MB-231 breast; 0.826 µM in the test on MDA-MB-435; 1.59 µM with MDA-N; over 100 µM in the test with MOLT-4 leukemia. Further, the TGI is over 100 µM in the test with OVCAR-5 ovarian, over 41.5 µM with PC-3 prostate, over 37.1 µM with SK-MEL-2 melanoma and over 94.1 µM in the test with UO-31 renal.
Turning to `c1ccc2c(c1)CCc1[nH]c3c(c1-2)-c1ccccc1CC3`, the TGI in the test with HL-60(TB) leukemia, in the test on M14 melanoma, with MDA-MB-231 breast, in the test with MDA-MB-435, in the test on MDA-N and in the test with MOLT-4 leukemia was over 100 µM in each case. Further, the TGI in the test with OVCAR-5 ovarian, in the test on PC-3 prostate, in the test on SK-MEL-2 melanoma and with UO-31 renal was over 100 µM each time.
With `COC(=O)[C@H](Cc1ccc(OC(C)(C)C)cc1)N[C@H](C)C(=O)N[C@@H](Cc1ccccc1)C(=O)OCc1ccccc1`, the TGI in the test with HL-60(TB) leukemia is over 100 µM; in the test on M14 melanoma, over 100 µM; in the test with MDA-MB-231 breast, over 100 µM; in the test on MDA-MB-435, over 100 µM; in the test on MDA-N, over 100 µM; in the test on MOLT-4 leukemia, 50 µM. The TGI in the test on OVCAR-5 ovarian is over 100 µM; in the test with PC-3 prostate, over 100 µM; with UO-31 renal, 43.7 µM.
`CC(C)(C)OC(=O)NCCCCC(NC(=O)C(Cc1c[nH]c2ccccc12)NC(=O)OCC1c2ccccc2-c2ccccc21)C(=O)N1CCCC1C(=O)NCC(N)=O` (configuration not stated) (Fmoc-WK(Boc)PG-NH2; configuration not given here): the TGI in the test with HL-60(TB) leukemia, with M14 melanoma, in the test with MDA-MB-231 breast, with MDA-MB-435, in the test on MDA-N and in the test on MOLT-4 leukemia was over 100 µM in each case. The TGI in the test with OVCAR-5 ovarian, in the test with PC-3 prostate, in the test on SK-MEL-2 melanoma and with UO-31 renal was over 100 µM each time.
Take `O=c1[nH]c(=O)n(C2OC(CO)C(O)C2O)cc1Oc1ccccc1` (configuration not stated): the TGI in the test with HL-60(TB) leukemia, in the test on M14 melanoma, with MDA-MB-231 breast, with MDA-MB-435, in the test with MDA-N and in the test on MOLT-4 leukemia was over 100 µM in each case. Further, the TGI with OVCAR-5 ovarian, with PC-3 prostate and with SK-MEL-2 melanoma was over 100 µM in each case.
